In patent US3994981A, “Derivatives of certain geranyl phenyl ethers” (Stauffer Chemical Company, priority 1973, dated 1976):

system: yellow mealworm, Tenebrio molitor, L.; assay: Insecticidal evaluation test: hindering metamorphosis of insects (Tenebrio molitor pupae, topical application); format: in vivo; conditions: applied in acetone to the venter of pupae 1-25 hours old; 28° C., 40% humidity; graded at adult emergence (6-8 days); average of 2 groups of 20 pupae
Protocol: The degree of activity of a candidate compound to hinder or impede the metamorphosis of insects is measured by treating the penultimate larval stage of a representative insect with the compound and examining it after its last molt toward the adult form for retention of immature features.
Specifically, yellow mealworm, Tenebrio molitor, L., larvae are maintained at 28° C. and 40% humidity on a diet of bran flakes. Prepupae care collected from the culture and kept in separate containers. The pupae collected once daily, are 1-25 hours old at the time of treatment. By means of a syringe, suitable amounts of candidate compounds in […] of acetone are applied to the ventor of Tenebrio molitor, L. pupae. Treated pupae are maintained at 28° C. and 40% humidity until the adults emerged (usually within 6-8 days). Emerged adults are graded as positive, negative, or dead. To be considered a positive response, the presence of typical pupal cuticle, urogomphi, gin trap, and abnormal wings, etc., are required. For each test, 2 groups of 20 pupae were used and the averaged results were reported.
The dose of a candidate compound per pupa that is needed to kill or give a positive response in the above insecticidal evaluation test for 10 of the 20 pupae is determined.

Compound	ED50: dose per pupa needed to kill or give a positive response for 10 of the 20 pupae
C=C(C)C(Cl)CCC(C)=CCOc1ccc(SC)cc1 (stereo not shown) [Compound 1]	0.3 μg/pupa
C=C(C)C(Cl)CCC(C)=CCOc1ccc(CC)cc1 (stereo not shown) [Compound 2, 1-(4'-ethyl) phenoxy-3,7-dimethyl-6-chloro-2,7-octadiene]	0.1 μg/pupa
C=C(C)C(Br)CCC(C)=CCOc1ccc(CC)cc1 (stereo not shown) [Compound 3, 1-(4'-ethyl) phenoxy-3,7-dimethyl-6-bromo-2,7-octadiene]	0.5 μg/pupa
C=C(C)C(Cl)CCC1(C)OC1COc1ccc(CC)cc1 (stereo not shown) [Compound 24, 3,7-dimethyl-6-chloro-1-p-ethylphenoxy-2,3-epoxy-7-octene]	0.03 μg/pupa
